PMC9954146, “Anti-Leukaemic Activity of Rilpivirine Is Mediated by Aurora A Kinase Inhibition” (Cancers, 2023)

Columns and labels:
Test in all cases: Kinase panel
Assay type in all cases: biochemical
Conditions in all cases: read-out: % Residual Activity
PKCδ(h) = biological target: T1, PKCδ(h) (Homo sapiens, UniProt Q05655)
T1 construct: purchased Eurofins (KinaseProfiler)
Outline: (§1)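 Kinome-wide selectivity of rilpivirine was profiled in a commercial kinase panel. Radioisotope-based assays run at each kinase's ATP Km gave IC50 values, which were converted to Ki with the Cheng–Prusoff equation.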

PKAcβ(h) = biological target: T2, PKAcβ(h) (Homo sapiens, UniProt P22694)
T2 construct: purchased Eurofins (KinaseProfiler)
Outline: as §1

[1] = biological target: PI3 Kinase (p110a/p65a)(h) (Homo sapiens, UniProt P42336)
Outline: as §1

EGFR(L858R)(h) = biological target: T3, EGFR(L858R)(h) (Homo sapiens, UniProt P00533, L858R)
T3 construct: purchased Eurofins (KinaseProfiler)
Outline: as §1

PTK5(h) = biological target: T4, PTK5(h) (Homo sapiens, UniProt P42685)
T4 construct: purchased Eurofins (KinaseProfiler)
Outline: as §1

LTK(h) = biological target: T5, LTK(h) (Homo sapiens, UniProt P29376)
T5 construct: purchased Eurofins (KinaseProfiler)
Outline: as §1

CDK5/p25(h) = biological target: T6, CDK5/p25(h) (Homo sapiens, UniProt Q00535)
T6 construct: purchased Eurofins (KinaseProfiler)
Outline: as §1

Met(Y1248D)(h) = biological target: T7, Met(Y1248D)(h) (Homo sapiens, UniProt P08581, Y1230D)
T7 construct: purchased Eurofins (KinaseProfiler)
Outline: as §1

Met(M1268T)(h) = biological target: T8, Met(M1268T)(h) (Homo sapiens, UniProt P08581, M1250T)
T8 construct: purchased Eurofins (KinaseProfiler)
Outline: as §1

MAPK2(h) = biological target: T9, MAPK2(h) (Homo sapiens, UniProt P28482)
T9 construct: purchased Eurofins (KinaseProfiler)
Outline: as §1

HPK1(h) = biological target: T10, HPK1(h) (Homo sapiens, UniProt Q92918)
T10 construct: purchased Eurofins (KinaseProfiler)
Outline: as §1

Itk(h) = biological target: T11, Itk(h) (Homo sapiens, UniProt Q08881)
T11 construct: purchased Eurofins (KinaseProfiler)
Outline: as §1

Blk(h) = biological target: T12, Blk(h) (Homo sapiens, UniProt P51451)
T12 construct: purchased Eurofins (KinaseProfiler)
Outline: as §1

Ron(h) = biological target: T13, Ron(h) (Homo sapiens, UniProt Q04912)
T13 construct: purchased Eurofins (KinaseProfiler)
Outline: as §1

[2] = biological target: PI3 Kinase (p110aH1047R)/p85a)(h) (Homo sapiens, UniProt P42336, H1047R)
Outline: as §1

CDK3/cyclinE(h) = biological target: T14, CDK3/cyclinE(h) (Homo sapiens, UniProt Q00526)
T14 construct: purchased Eurofins (KinaseProfiler)
Outline: as §1

CK1γ1(h) = biological target: T15, CK1γ1(h) (Homo sapiens, UniProt Q9HCP0)
T15 construct: purchased Eurofins (KinaseProfiler)
Outline: as §1

[3] = biological target: T16, PI3 Kinase (p110a(E545K)/p85a)(m) (Mus musculus, UniProt P42337, E545K)
T16 construct: purchased Eurofins (KinaseProfiler)
Outline: as §1

PI3KC2g(h) = PI3KC2g(h) (Homo sapiens, UniProt O75747)
Outline: as §1

Wee1(h) = biological target: T17, Wee1(h) (Homo sapiens, UniProt P30291)
T17 construct: purchased Eurofins (KinaseProfiler)
Outline: as §1

Aurora-C(h) = biological target: T18, Aurora-C(h) (Homo sapiens, UniProt Q9UQB9)
T18 construct: purchased Eurofins (KinaseProfiler)
Outline: as §1

B-Raf(h) = biological target: T19, B-Raf(h) (Homo sapiens, UniProt P15056)
T19 construct: purchased Eurofins (KinaseProfiler)
Outline: as §1

FGFR1(h) = biological target: T20, FGFR1(h) (Homo sapiens, UniProt P11362)
T20 construct: purchased Eurofins (KinaseProfiler)
Outline: as §1

VRK1(h) = biological target: T21, VRK1(h) (Homo sapiens, UniProt Q99986)
T21 construct: purchased Eurofins (KinaseProfiler)
Outline: as §1

CK2(h) = biological target: T22, CK2(h) (Homo sapiens, UniProt P68400)
T22 construct: purchased Eurofins (KinaseProfiler)
Outline: as §1

CDK6/cyclinD3(h) = biological target: T23, CDK6/cyclinD3(h) (Homo sapiens, UniProt Q00534)
T23 construct: purchased Eurofins (KinaseProfiler)
Outline: as §1

Mer(h) = biological target: T24, Mer(h) (Homo sapiens, UniProt Q12866)
T24 construct: purchased Eurofins (KinaseProfiler)
Outline: as §1

[4] = biological target: PI3 Kinase (p110b/p85a)(m) (Mus musculus, UniProt Q8BTI9)
Outline: as §1

PDGFRα(h) = biological target: T25, PDGFRα(h) (Homo sapiens, UniProt P16234)
T25 construct: purchased Eurofins (KinaseProfiler)
Outline: as §1

JNK2α2(h) = biological target: T26, JNK2α2(h) (Homo sapiens, UniProt P45984)
T26 construct: purchased Eurofins (KinaseProfiler)
Outline: as §1

PKCβI(h) = biological target: T27, PKCβI(h) (Homo sapiens, UniProt P05771)
T27 construct: purchased Eurofins (KinaseProfiler)
Outline: as §1

EphA7(h) = biological target: T28, EphA7(h) (Homo sapiens, UniProt Q15375)
T28 construct: purchased Eurofins (KinaseProfiler)
Outline: as §1

Met(D1246N)(h) = biological target: T29, Met(D1246N)(h) (Homo sapiens, UniProt P08581, D1228N)
T29 construct: purchased Eurofins (KinaseProfiler)
Outline: as §1

MST2(h) = biological target: T30, MST2(h) (Homo sapiens, UniProt Q13188)
T30 construct: purchased Eurofins (KinaseProfiler)
Outline: as §1

NEK11(h) = biological target: T31, NEK11(h) (Homo sapiens, UniProt Q8NG66)
T31 construct: purchased Eurofins (KinaseProfiler)
Outline: as §1

[5] = biological target: T32, PI3 Kinase (p110b/p85a)(h) (Homo sapiens, UniProt P42338)
T32 construct: purchased Eurofins (KinaseProfiler)
Outline: as §1

EGFR(T790M)(h) = biological target: T33, EGFR(T790M)(h) (Homo sapiens, UniProt P00533, T790M)
T33 construct: purchased Eurofins (KinaseProfiler)
Outline: as §1

T11 sequence (Q08881 whole entry): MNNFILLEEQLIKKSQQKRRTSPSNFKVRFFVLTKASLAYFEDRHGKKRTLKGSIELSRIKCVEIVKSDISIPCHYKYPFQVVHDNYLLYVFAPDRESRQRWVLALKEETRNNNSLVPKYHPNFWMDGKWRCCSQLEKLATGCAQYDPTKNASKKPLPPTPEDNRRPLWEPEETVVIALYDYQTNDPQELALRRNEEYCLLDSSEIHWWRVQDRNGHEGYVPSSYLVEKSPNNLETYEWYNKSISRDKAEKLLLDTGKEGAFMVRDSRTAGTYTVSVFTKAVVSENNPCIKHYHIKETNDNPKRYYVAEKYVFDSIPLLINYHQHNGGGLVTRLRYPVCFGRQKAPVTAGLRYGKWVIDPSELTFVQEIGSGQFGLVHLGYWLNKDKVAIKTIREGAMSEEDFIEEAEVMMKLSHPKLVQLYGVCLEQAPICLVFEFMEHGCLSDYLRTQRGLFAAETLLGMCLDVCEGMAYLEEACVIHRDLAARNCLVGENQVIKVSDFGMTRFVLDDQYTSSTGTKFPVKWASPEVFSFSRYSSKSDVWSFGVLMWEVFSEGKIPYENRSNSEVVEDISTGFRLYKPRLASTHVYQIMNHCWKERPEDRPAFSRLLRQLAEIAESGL
Sequence of PI3KC2g(h) (O75747 whole entry): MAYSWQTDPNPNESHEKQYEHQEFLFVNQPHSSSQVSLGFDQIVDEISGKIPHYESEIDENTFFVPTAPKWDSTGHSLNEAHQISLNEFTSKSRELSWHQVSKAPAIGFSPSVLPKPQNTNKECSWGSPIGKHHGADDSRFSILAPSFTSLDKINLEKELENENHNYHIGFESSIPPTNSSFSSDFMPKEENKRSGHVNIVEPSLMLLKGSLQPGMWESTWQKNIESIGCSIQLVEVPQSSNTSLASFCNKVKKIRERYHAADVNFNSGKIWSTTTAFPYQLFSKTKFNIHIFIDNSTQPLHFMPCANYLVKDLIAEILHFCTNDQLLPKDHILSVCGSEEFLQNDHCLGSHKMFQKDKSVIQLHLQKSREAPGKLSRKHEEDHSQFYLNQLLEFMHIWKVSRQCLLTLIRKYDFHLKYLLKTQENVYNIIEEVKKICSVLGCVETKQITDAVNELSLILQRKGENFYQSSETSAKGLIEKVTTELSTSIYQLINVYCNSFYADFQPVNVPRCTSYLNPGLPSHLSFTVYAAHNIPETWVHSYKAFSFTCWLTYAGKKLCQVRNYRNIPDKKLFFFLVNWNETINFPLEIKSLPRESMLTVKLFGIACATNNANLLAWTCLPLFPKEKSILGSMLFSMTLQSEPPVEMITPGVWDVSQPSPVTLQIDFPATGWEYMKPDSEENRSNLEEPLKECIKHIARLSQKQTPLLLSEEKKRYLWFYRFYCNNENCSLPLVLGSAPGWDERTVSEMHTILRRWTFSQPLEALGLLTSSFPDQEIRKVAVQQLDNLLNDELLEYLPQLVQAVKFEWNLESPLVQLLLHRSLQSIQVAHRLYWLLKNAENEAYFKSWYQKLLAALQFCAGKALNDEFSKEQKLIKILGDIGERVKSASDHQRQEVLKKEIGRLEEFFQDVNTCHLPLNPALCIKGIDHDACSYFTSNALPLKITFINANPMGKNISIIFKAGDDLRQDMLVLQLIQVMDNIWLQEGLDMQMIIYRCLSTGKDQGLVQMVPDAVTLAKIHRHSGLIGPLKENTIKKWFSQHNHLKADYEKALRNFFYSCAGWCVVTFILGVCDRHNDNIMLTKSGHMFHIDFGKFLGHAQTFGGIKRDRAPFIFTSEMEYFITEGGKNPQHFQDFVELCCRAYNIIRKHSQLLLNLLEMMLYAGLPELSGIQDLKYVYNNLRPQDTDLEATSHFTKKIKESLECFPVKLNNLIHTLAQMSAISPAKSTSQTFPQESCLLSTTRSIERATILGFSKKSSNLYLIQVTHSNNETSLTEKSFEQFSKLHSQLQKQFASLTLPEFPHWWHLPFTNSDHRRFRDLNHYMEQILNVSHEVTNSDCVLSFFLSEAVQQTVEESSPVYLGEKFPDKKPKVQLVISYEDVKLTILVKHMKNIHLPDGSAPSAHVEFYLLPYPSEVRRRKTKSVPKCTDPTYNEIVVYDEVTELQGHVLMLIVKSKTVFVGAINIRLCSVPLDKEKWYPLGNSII
Sequence of PI3 Kinase (p110a/p65a)(h) (P42336 whole entry): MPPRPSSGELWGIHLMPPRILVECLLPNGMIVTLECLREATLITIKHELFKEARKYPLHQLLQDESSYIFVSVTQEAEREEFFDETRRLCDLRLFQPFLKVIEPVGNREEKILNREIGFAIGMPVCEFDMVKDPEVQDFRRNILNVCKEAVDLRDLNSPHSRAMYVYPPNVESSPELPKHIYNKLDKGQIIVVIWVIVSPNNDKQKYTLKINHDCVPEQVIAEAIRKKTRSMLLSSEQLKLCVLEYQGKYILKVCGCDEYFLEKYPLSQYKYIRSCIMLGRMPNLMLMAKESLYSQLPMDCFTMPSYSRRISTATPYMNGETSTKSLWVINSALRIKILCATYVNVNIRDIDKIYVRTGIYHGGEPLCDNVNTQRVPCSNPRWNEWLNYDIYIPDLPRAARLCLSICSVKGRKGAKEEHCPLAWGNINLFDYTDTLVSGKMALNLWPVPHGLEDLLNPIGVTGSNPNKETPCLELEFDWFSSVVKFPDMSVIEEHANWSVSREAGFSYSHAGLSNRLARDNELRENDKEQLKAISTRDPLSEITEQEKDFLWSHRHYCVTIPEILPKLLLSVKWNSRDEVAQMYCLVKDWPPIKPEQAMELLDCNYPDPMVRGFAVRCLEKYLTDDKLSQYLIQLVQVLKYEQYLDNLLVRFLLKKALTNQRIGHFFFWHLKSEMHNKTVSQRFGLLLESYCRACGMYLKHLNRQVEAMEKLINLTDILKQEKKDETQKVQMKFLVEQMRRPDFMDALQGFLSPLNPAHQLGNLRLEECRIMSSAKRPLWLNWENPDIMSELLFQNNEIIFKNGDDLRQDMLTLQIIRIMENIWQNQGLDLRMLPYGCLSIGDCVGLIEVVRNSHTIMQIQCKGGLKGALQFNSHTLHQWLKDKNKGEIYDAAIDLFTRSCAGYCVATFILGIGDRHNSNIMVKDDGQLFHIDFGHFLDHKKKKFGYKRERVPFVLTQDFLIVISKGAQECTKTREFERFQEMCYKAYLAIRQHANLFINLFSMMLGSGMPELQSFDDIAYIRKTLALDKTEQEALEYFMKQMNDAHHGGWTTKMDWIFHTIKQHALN
T29 sequence (P08581 956-1390 D1228N limits assumed): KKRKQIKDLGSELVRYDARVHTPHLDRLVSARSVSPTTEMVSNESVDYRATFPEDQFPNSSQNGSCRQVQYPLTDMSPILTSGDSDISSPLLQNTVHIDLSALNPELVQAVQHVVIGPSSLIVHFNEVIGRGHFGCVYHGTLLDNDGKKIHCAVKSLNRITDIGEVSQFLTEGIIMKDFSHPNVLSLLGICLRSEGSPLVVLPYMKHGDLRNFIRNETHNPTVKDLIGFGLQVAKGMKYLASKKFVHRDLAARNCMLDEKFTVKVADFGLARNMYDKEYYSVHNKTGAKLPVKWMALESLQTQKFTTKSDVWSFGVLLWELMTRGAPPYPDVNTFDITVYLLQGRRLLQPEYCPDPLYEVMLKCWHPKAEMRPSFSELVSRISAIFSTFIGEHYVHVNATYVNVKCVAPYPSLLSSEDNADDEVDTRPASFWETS
T17 sequence (P30291 whole entry): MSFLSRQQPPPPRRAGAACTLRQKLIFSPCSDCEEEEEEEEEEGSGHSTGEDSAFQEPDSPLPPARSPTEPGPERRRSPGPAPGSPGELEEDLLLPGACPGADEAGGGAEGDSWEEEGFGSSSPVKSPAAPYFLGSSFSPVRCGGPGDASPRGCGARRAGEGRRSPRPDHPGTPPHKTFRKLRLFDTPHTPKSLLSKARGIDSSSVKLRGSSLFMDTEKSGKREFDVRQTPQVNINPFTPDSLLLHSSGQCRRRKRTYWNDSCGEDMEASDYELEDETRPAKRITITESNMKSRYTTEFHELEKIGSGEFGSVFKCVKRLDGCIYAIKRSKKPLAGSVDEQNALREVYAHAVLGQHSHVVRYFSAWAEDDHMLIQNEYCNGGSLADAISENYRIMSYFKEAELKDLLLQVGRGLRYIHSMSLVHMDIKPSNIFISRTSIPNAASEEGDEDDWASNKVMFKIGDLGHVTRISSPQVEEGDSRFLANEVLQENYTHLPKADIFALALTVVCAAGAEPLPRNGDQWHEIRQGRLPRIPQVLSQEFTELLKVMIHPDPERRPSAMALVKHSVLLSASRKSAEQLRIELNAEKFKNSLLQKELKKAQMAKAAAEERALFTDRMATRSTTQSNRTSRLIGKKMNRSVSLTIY
T26 sequence (P45984 whole entry): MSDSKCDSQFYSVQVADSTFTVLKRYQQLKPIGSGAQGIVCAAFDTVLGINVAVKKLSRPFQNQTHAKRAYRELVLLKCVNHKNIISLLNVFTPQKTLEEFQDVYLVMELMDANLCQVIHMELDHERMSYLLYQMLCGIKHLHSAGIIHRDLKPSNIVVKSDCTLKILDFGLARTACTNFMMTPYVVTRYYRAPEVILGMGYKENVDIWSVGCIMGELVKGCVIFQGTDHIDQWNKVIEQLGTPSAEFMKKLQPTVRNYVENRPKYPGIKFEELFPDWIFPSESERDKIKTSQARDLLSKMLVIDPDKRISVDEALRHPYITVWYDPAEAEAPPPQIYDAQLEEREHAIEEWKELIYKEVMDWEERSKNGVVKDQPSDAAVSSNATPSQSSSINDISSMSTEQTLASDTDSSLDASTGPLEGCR
T18 sequence (Q9UQB9 whole entry): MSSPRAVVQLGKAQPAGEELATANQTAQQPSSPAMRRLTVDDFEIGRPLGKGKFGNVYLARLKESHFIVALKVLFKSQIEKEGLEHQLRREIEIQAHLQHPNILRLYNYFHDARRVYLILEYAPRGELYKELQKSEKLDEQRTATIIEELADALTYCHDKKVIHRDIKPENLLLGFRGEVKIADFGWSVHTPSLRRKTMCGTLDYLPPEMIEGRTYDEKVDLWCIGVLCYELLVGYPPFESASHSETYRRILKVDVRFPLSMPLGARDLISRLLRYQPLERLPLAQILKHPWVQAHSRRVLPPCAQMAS

Cc1cc(/C=C/C#N)cc(C)c1Nc1ccnc(Nc2ccc(C#N)cc2)n1 [rilpivirine, (E)-4-((4-((4-(2-cyanoethenyl)-2,6-dimethylphenyl)amino)pyrimidin-2-yl)amino)benzonitrile]
remaining activity at 1 µM (PKCδ(h)): 72%
remaining activity at 1 µM (PKAcβ(h)): 93%
remaining activity at 1 µM [1]: 93%
remaining activity at 1 µM (EGFR(L858R)(h)): 90%
remaining activity at 1 µM (PTK5(h)): 32%
remaining activity at 1 µM (LTK(h)): 78%
remaining activity at 1 µM (CDK5/p25(h)): 97%
remaining activity at 1 µM (Met(Y1248D)(h)): 100%
remaining activity at 1 µM (Met(M1268T)(h)): 109%
remaining activity at 1 µM (MAPK2(h)): 101%
remaining activity at 1 µM (HPK1(h)): 62%
remaining activity at 1 µM (Itk(h)): 91%
remaining activity at 1 µM (Blk(h)): 73%
remaining activity at 1 µM (Ron(h)): 85%
remaining activity at 1 µM [2]: 93%
remaining activity at 1 µM (CDK3/cyclinE(h)): 90%
remaining activity at 1 µM (CK1γ1(h)): 80%
remaining activity at 1 µM [3]: 97%
remaining activity at 1 µM (PI3KC2g(h)): 82%
remaining activity at 1 µM (Wee1(h)): 90%
remaining activity at 1 µM (Aurora-C(h)): 93%
remaining activity at 1 µM (B-Raf(h)): 80%
remaining activity at 1 µM (FGFR1(h)): 94%
remaining activity at 1 µM (VRK1(h)): 80%
remaining activity at 1 µM (CK2(h)): 90%
remaining activity at 1 µM (CDK6/cyclinD3(h)): 96%
remaining activity at 1 µM (Mer(h)): 74%
remaining activity at 1 µM [4]: 98%
remaining activity at 1 µM (PDGFRα(h)): 96%
remaining activity at 1 µM (JNK2α2(h)): 85%
remaining activity at 1 µM (PKCβI(h)): 89%
remaining activity at 1 µM (EphA7(h)): 96%
remaining activity at 1 µM (Met(D1246N)(h)): 102%
remaining activity at 1 µM (MST2(h)): 80%
remaining activity at 1 µM (NEK11(h)): 92%
remaining activity at 1 µM [5]: 104%
remaining activity at 1 µM (EGFR(T790M)(h)): 79%
